The source of these data is patent US20240293392A1, “INHIBITOR COMPOUNDS” (NeoPhore Limited, priority 2021, published 2024).

The target in assay [1] is T1, recombinant N-terminal MLH1 (residues 15-340) (Homo sapiens, UniProt P40692).
T1 construct: recombinant N-terminal MLH1 (residues 15-340)
T1 sequence (P40692 15-340): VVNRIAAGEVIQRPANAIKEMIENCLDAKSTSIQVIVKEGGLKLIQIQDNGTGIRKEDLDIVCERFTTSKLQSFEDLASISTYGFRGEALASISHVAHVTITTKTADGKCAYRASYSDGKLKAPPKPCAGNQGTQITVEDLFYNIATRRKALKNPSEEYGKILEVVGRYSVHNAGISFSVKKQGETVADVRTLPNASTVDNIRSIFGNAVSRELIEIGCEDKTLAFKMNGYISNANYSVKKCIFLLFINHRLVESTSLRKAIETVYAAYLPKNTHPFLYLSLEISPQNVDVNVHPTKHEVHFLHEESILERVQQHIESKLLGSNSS
In words: Fluorescence Polarisation Assay for MLH1. As to conditions: fluorescence polarisation probe displacement; 100 nM N-terminal MLH1, 5 nM probe compound. Format: binding. The gist of the method:
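FP displacement assay: 100 nM MLH1 (residues 15-340) preincubated 30 min at room temperature with compound in 25 mM HEPES pH 7.5, 250 mM NaCl, 10 mM MgCl2, 0.01% Triton X-100, 5 mM DTT, then 5 nM rhodamine-labelled probe added and read immediately. Data normalised to no-inhibitor and no-enzyme controls.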
A general note: Fluorescence polarisation rises when a labelled molecule tumbles more slowly, as on binding a larger partner.

In assay [2] the target is T2, recombinant N-terminal PMS2 (residues 1-365) (Homo sapiens, UniProt P54278).
T2 construct: recombinant N-terminal PMS2 (residues 1-365)
T2 sequence (P54278 1-365): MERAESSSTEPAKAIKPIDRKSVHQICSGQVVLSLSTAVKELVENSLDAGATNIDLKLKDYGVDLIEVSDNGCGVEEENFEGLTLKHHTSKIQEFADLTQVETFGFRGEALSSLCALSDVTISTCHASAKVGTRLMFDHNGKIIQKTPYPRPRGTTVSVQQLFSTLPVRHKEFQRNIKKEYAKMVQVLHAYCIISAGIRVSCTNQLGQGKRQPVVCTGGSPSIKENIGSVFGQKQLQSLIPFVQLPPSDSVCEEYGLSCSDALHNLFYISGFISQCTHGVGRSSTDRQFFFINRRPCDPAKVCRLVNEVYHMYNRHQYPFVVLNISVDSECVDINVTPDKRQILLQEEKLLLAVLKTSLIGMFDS
In words: Fluorescence Polarisation Assay for PMS2. Format: binding. As to conditions: fluorescence polarisation probe displacement; 10 nM N-terminal PMS2, 5 nM probe compound; read-out: PMS2 IC50. The essentials:
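Competition fluorescence polarisation with 10 nM N-terminal PMS2 and 5 nM fluorescent probe (final), read after 1 h at room temperature following 30 min compound pre-incubation. Data normalised to no-inhibitor and no-enzyme controls; single-point screening or serial dilutions for potency.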

Where only a bound is given, the exact number is not on record here.

By IC50 is commonly meant the concentration that inhibits the measured activity by half.

As to `CN(C)C(=O)N1CCC(Nc2cccc3c2CN(C(=O)c2c(O)cc(O)cc2OCc2ccccc2)CC3)C1` (centres unmarked) [Example 113, 3-((2-(2-(Benzyloxy)-4,6-dihydroxybenzoyl)-1,2,3,4-tetrahydroisoquinolin-8-yl)amino)-N,N-dimethylpyrrolidine-1-carboxamide], the IC50 in assay [1] was below 1000 nM; in assay [2] it was above 10000 nM.
Turning to `CN1CCC(Nc2cccc3c2CN(C(=O)c2c(O)cc(O)cc2OCc2ccccc2)CC3)CC1=O` (centres unmarked) [Example 114, 4-((2-(2-(Benzyloxy)-4,6-dihydroxybenzoyl)-1,2,3,4-tetrahydroisoquinolin-8-yl)amino)-1-methylpiperidin-2-one], the results for the 50% inhibitory concentration (IC50) in assay [1] and in assay [2] were 1000 to 10000 nM and above 10000 nM, respectively.
For the compound `O=C(c1c(O)cc(O)cc1OCc1ccccc1)N1CCc2ncnc(N[C@H]3CCOC3)c2C1` [Example 115, (S)-(2-(Benzyloxy)-4,6-dihydroxyphenyl)(4-((tetrahydrofuran-3-yl)amino)-7,8-dihydropyrido[4,3-d]pyrimidin-6(5H)-yl)methanone], the IC50 in assay [1] and in assay [2] was 1000 to 10000 nM in each case.
`O=C(c1c(O)cc(O)cc1OCc1ccccc1)N1CCc2ccc(F)c(NC3CCOC3)c2C1` (centres unmarked) [Example 116, (2-(Benzyloxy)-4,6-dihydroxyphenyl)(7-fluoro-8-((tetrahydrofuran-3-yl)amino)-3,4-dihydroisoquinolin-2(1H)-yl)methanone]: the IC50 in assay [1] and in assay [2] was 1000 to 10000 nM each time.
Consider `Cn1cc(Nc2cccc3c2CN(C(=O)c2c(O)cc(O)cc2OCc2ccccc2)CC3)cn1` [Example 117, (2-(Benzyloxy)-4,6-dihydroxyphenyl)(8-((1-methyl-1H-pyrazol-4-yl)amino)-3,4-dihydroisoquinolin-2(1H)-yl)methanone], for which the concentration for half-maximal inhibition (IC50) in assay [1] is below 1000 nM; in assay [2], 1000 to 10000 nM.
`O=C(c1c(O)cc(O)cc1OCc1ccccc1)N1CCc2cccc(Nc3cccnc3)c2C1` [Example 118, (2-(Benzyloxy)-4,6-dihydroxyphenyl)(8-(pyridin-3-ylamino)-3,4-dihydroisoquinolin-2(1H)-yl)methanone]: the half-maximal inhibitory concentration (IC50) in assay [1] and in assay [2] was 1000 to 10000 nM each time.
Turning to `O=C(c1c(O)cc(O)cc1OCc1ccccc1)N1CCc2cccc(Nc3cnccn3)c2C1` [Example 119, (2-(Benzyloxy)-4,6-dihydroxyphenyl)(8-(pyrazin-2-ylamino)-3,4-dihydroisoquinolin-2(1H)-yl)methanone], the half-inhibitory concentration (IC50) in assay [1] and in assay [2] was 1000 to 10000 nM in each case.
Turning to `O=C(c1c(O)cc(O)cc1OCc1ccccc1)N1CCc2cccc(Nc3ccnnc3)c2C1` [Example 120, (2-(Benzyloxy)-4,6-dihydroxyphenyl)(8-(pyridazin-4-ylamino)-3,4-dihydroisoquinolin-2(1H)-yl)methanone], the IC50 in assay [1] was below 1000 nM; in assay [2], 1000 to 10000 nM.
The matching figures for `CN1CCN(Cc2cc3c(c(N[C@H]4CCOC4)c2)CN(C(=O)c2c(O)cc(O)cc2OCc2ccccc2)CC3)CC1` [Example 121, (S)-(2-(Benzyloxy)-4,6-dihydroxyphenyl)(6-((4-methylpiperazin-1-yl)methyl)-8-((tetrahydrofuran-3-yl)amino)-3,4-dihydroisoquinolin-2(1H)-yl)methanone]: below 1000 nM and below 1000 nM.
Regarding `CN1CCN(Cc2cc3c(c(N[C@@H]4CCOC4)c2)CN(C(=O)c2c(O)cc(O)cc2OCc2ccccc2)CC3)CC1` [Example 122, (R)-(2-(Benzyloxy)-4,6-dihydroxyphenyl)(6-((4-methylpiperazin-1-yl)methyl)-8-((tetrahydrofuran-3-yl)amino)-3,4-dihydroisoquinolin-2(1H)-yl)methanone], the concentration for half-maximal inhibition (IC50) in assay [1] was below 1000 nM; in assay [2] it was 1000 to 10000 nM.
On to `Cc1ncncc1Nc1cccc2c1CN(C(=O)c1c(O)cc(O)cc1OCc1ccccc1)CC2` [Example 123, (2-(Benzyloxy)-4,6-dihydroxyphenyl)(8-((4-methylpyrimidin-5-yl)amino)-3,4-dihydroisoquinolin-2(1H)-yl)methanone], for which the half-maximal inhibitory concentration (IC50) was 1000 to 10000 nM in assay [1] and above 10000 nM in assay [2].
`Cc1cccc(COc2cc(O)cc(O)c2C(=O)N2CCc3cccc(N[C@H]4CCOC4)c3C2)c1` [Example 124, (S)-(2,4-Dihydroxy-6-((3-methylbenzyl)oxy)phenyl)(8-((tetrahydrofuran-3-yl)amino)-3,4-dihydroisoquinolin-2(1H)-yl)methanone]: the half-maximal inhibitory concentration (IC50) in assay [1] and in assay [2] was below 1000 nM throughout.
For the compound `CN(C)Cc1cc2c(c(N[C@H]3CCOC3)c1)CN(C(=O)c1c(O)cc(O)cc1OCc1ccccc1)CC2` [Example 125, (S)-(2-(Benzyloxy)-4,6-dihydroxyphenyl)(6-((dimethylamino)methyl)-8-((tetrahydrofuran-3-yl)amino)-3,4-dihydroisoquinolin-2(1H)-yl)methanone], the IC50 in assay [1] and in assay [2] was below 1000 nM each time.
For `CN(C)Cc1cc2c(c(N[C@@H]3CCOC3)c1)CN(C(=O)c1c(O)cc(O)cc1OCc1ccccc1)CC2` [Example 126, (R)-(2-(Benzyloxy)-4,6-dihydroxyphenyl)(6-((dimethylamino)methyl)-8-((tetrahydrofuran-3-yl)amino)-3,4-dihydroisoquinolin-2(1H)-yl)methanone], the IC50 in assay [1] is below 1000 nM; in assay [2] it was 1000 to 10000 nM.
Turning to `CN1CCN(C(=O)c2cc3c(c(N[C@H]4CCOC4)c2)CN(C(=O)c2c(O)cc(O)cc2OCc2ccccc2)CC3)CC1` [Example 127, (S)-(2-(2-(Benzyloxy)-4,6-dihydroxybenzoyl)-8-((tetrahydrofuran-3-yl)amino)-1,2,3,4-tetrahydroisoquinolin-6-yl)(4-methylpiperazin-1-yl)methanone], the IC50 in assay [1] and in assay [2] was below 1000 nM throughout.
In the case of `CNc1cc(OCCOC)cc2c1CN(C(=O)c1c(O)cc(O)cc1OCc1ccccc1)CC2` [Example 128, (2-(Benzyloxy)-4,6-dihydroxyphenyl)(6-(2-methoxyethoxy)-8-(methylamino)-3,4-dihydroisoquinolin-2(1H)-yl)methanone], the half-maximal inhibitory concentration (IC50) in assay [1] and in assay [2] was 1000 to 10000 nM each time.
On to `CN(C)C(=O)c1cc2c(c(N[C@@H]3CCOC3)c1)CN(C(=O)c1c(O)cc(O)cc1OCc1ccccc1)CC2` [Example 129, (R)-2-(2-(Benzyloxy)-4,6-dihydroxybenzoyl)-N,N-dimethyl-8-((tetrahydrofuran-3-yl)amino)-1,2,3,4-tetrahydroisoquinoline-6-carboxamide], for which the values for the IC50 in assay [1] and in assay [2] were below 1000 nM and 1000 to 10000 nM, respectively.
The matching figures for `CN(C)C(=O)c1cc2c(c(N[C@H]3CCOC3)c1)CN(C(=O)c1c(O)cc(O)cc1OCc1ccccc1)CC2` [Example 130, (S)-2-(2-(Benzyloxy)-4,6-dihydroxybenzoyl)-N,N-dimethyl-8-((tetrahydrofuran-3-yl)amino)-1,2,3,4-tetrahydroisoquinoline-6-carboxamide]: below 1000 nM and below 1000 nM.
As to `CN(C)CCOc1cc2c(c(N[C@@H]3CCOC3)c1)CN(C(=O)c1c(O)cc(O)cc1OCc1ccccc1)CC2` [Example 131, (R)-(2-(Benzyloxy)-4,6-dihydroxyphenyl)(6-(2-(dimethylamino)ethoxy)-8-((tetrahydrofuran-3-yl)amino)-3,4-dihydroisoquinolin-2(1H)-yl)methanone], the half-inhibitory concentration (IC50) was below 1000 nM in assay [1] and 1000 to 10000 nM in assay [2].
